Assay results: publication PMC3576019 (The Journal of steroid biochemistry and molecular biology, 2010)

Key:
[1] = biological target: porcine uterine progesterone receptor; conditions: read-out: IC50 for the porcine uterine progesterone receptor; ref [17]; cited from earlier work
Progesterone Receptor = biological target: T1, Progesterone Receptor (Homo sapiens, UniProt P06401); test: Alkaline phosphatase assay in T47D cells; assay type: cell-based; conditions: 20 h, progesterone at 10nM
T1 sequence (P06401 1-933): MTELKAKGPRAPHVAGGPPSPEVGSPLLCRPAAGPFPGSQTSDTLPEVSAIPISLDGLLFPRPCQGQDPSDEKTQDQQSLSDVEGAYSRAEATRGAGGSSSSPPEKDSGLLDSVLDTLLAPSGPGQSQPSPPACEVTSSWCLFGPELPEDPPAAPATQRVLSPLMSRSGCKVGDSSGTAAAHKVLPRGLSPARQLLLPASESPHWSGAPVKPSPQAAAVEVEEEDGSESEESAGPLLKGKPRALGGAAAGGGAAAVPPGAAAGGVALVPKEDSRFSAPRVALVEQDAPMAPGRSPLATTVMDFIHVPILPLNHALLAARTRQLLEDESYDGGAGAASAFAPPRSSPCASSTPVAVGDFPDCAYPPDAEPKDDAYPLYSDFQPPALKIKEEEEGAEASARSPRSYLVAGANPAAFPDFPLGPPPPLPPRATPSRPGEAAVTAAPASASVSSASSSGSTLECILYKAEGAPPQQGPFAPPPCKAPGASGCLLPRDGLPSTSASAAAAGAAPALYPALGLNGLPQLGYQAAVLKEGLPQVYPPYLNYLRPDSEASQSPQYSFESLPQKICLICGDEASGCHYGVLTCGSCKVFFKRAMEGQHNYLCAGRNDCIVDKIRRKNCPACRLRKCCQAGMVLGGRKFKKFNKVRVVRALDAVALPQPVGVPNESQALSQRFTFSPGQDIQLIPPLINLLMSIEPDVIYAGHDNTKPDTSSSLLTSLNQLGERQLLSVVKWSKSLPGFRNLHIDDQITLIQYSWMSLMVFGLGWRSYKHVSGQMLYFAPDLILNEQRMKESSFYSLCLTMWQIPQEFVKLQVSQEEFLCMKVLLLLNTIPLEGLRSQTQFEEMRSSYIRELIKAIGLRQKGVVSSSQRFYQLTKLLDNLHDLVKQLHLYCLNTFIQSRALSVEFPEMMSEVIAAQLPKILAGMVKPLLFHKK

rabbit endometrium = test: McPhail assay in estrogen-primed immature rabbits; assay type: in vivo; conditions: progesterone alone (method: MPA 0.15mg/kg/day)

SMILES	IC50 [1]	induction of alkaline phosphatase activity (Progesterone Receptor)	progestational histologic changes (McPhail Index), positive control (rabbit endometrium)
CC(=O)O[C@H]1[C@@H](O)C=C2C=C3OC(=O)C(C)=C3C[C@]2(C)[C@H]1C [PF1092A]	30 nM	–	–
CC(=O)[C@H]1CC[C@H]2[C@@H]3CCC4=CC(=O)CC[C@]4(C)[C@H]3CC[C@]12C [Progesterone]	–	significantly increased alkaline phosphatase activity	maximal progestational histologic changes were noted
